Data set [1] deals with Amyloid-beta precursor protein (Homo sapiens) (UniProt P05067). The data set can be described thus: Inhibition of human amyloid beta (1 to 42) fibrillisation in cell-free solution at 100 uM measured every 10 mins up to 48 hrs by Thioflavin T based fluorescence assay.
For data set [2] the target is unchanged. The data set can be described thus: Inhibition of human amyloid beta (1 to 42) assessed as neuroprotective activity at 2 uM of amyloid beta (1 to 42)-induced toxicity in rat PC12 cells by measuring reduction in cell viability at 10 to 50 uM incubated 15 mins prior to amyloid beta (1 to 42) addition measured after 48 hrs by MTT assay. The data set is classed as cell-based.

Data set [3] has the same target. Briefly: Inhibition of human amyloid beta (1 to 42) assessed as neuroprotective activity at 2 uM of amyloid beta (1 to 42)-induced toxicity in rat PC12 cells by measuring reduction in cell viability at 100 uM incubated 15 mins prior to amyloid beta (1 to 42) addition measured after 48 hrs by MTT assay. It is filed as cell-based. (Formazan colour is commonly taken as a measure of viable cells.)

For data set [4] the target is unchanged. Briefly: Inhibition of human amyloid beta (1 to 42) assessed as reduction in fibrillisation AUC in cell-free solution at 100 uM measured every 10 mins for 48 hrs by Thioflavin T based fluorescence assay.
Data set [5] has the same target. The data set can be described thus: Inhibition of human amyloid beta (1 to 42) assessed as neuroprotective activity up to 2 uM of amyloid beta (1 to 42)-induced toxicity in rat PC12 cells by measuring reduction in cell viability at 100 uM incubated 15 mins prior to amyloid beta (1 to 42) addition measured after 48 hrs by MTT assay. The data set is classed as cell-based.

Data set [6] has the same target. The data set can be described thus: Inhibition of human amyloid beta (1 to 42) aggregation assessed as loosely attached/thin fibrils at 100 uM after 48 hrs by transmission electron microscopic analysis.
The target is the same in data set [7]. Briefly: Inhibition of human amyloid beta (1 to 42) aggregation assessed as reduction in fibril formation at 100 uM after 48 hrs by transmission electron microscopic analysis.
For data set [8] the target is unchanged. The data set can be described thus: Inhibition of human amyloid beta (1 to 42) aggregation at 100 uM after 48 hrs by transmission electron microscopic analysis.
Data set [9] shares this target. The data set can be described thus: Inhibition of human amyloid beta (1 to 42) assessed as neuroprotective activity at 2 uM of amyloid beta (1 to 42)-induced toxicity in rat PC12 cells by measuring reduction in cell viability incubated 15 mins prior to amyloid beta (1 to 42) addition measured after 48 hrs by MTT assay. The data set is classed as cell-based.
Data set [10] has the same target. The data set can be described thus: Inhibition of human amyloid beta (1 to 42) assessed as neuroprotective activity up to 1 uM of amyloid beta (1 to 42)-induced toxicity in rat PC12 cells by measuring reduction in cell viability at 100 uM incubated 15 mins prior to amyloid beta (1 to 42) addition measured after 48 hrs by MTT assay. The data set is classed as cell-based.

Data set [11] shares this target. The data set can be described thus: Inhibition of human amyloid beta (1 to 42) fibrillisation in cell-free solution at 100 uM measured up to 16 hrs by Thioflavin T based fluorescence assay.
Data set [12] has as its system PC-12. The data set can be described thus: Cytotoxicity against rat PC12 cells assessed as reduction in cell viability at 100 uM after 48 hrs in presence of 0.1 uM amyloid beta (1 to 42) by MTT assay. Conditions: pc-12, 48 h. The data set is classed as cell-based.
The target of data set [13] is Amyloid-beta precursor protein (Homo sapiens) (UniProt P05067). The data set can be described thus: Inhibition of human amyloid beta (1 to 42) aggregation assessed as increase in preponderance of fibril meshwork formation at 100 uM after 48 hrs by transmission electron microscopic analysis.
Data set [14] deals with PC-12. Briefly: Cytotoxicity against rat PC12 cells assessed as reduction in cell viability at 100 uM after 48 hrs in presence of up to 2 uM amyloid beta (1 to 42) by MTT assay. It is filed as cell-based. The following applies: pc-12, 48 h.
Data set [15] deals with Amyloid-beta precursor protein (Homo sapiens) (UniProt P05067). The data set can be described thus: Inhibition of human amyloid beta (1 to 42) assessed as neuroprotective activity against amyloid beta (1 to 42)-induced toxicity in rat PC12 cells by measuring reduction in cell viability at 10 uM incubated 15 mins prior to amyloid beta (1 to 42) addition measured after 48 hrs by MTT assay. The data set is classed as cell-based.

The target is the same in data set [16]. The data set can be described thus: Inhibition of human amyloid beta (1 to 42) assessed as neuroprotective activity against amyloid beta (1 to 42)-induced toxicity in rat PC12 cells by measuring reduction in cell viability at 50 to 100 uM incubated 15 mins prior to amyloid beta (1 to 42) addition measured after 48 hrs by MTT assay. It is filed as cell-based.

In data set [17] the test system is PC-12. The data set can be described thus: Cytotoxicity against rat PC12 cells assessed as reduction in cell viability at 100 uM after 48 hrs by MTT assay. It is filed as cell-based. The following applies: pc-12, 48 h.

Structures are written as SMILES. Active and inactive are the calls of the source. The calls are words filed in the database; no cut-off is given here.

Chain of Amyloid-beta precursor protein (Homo sapiens) (P05067 whole entry): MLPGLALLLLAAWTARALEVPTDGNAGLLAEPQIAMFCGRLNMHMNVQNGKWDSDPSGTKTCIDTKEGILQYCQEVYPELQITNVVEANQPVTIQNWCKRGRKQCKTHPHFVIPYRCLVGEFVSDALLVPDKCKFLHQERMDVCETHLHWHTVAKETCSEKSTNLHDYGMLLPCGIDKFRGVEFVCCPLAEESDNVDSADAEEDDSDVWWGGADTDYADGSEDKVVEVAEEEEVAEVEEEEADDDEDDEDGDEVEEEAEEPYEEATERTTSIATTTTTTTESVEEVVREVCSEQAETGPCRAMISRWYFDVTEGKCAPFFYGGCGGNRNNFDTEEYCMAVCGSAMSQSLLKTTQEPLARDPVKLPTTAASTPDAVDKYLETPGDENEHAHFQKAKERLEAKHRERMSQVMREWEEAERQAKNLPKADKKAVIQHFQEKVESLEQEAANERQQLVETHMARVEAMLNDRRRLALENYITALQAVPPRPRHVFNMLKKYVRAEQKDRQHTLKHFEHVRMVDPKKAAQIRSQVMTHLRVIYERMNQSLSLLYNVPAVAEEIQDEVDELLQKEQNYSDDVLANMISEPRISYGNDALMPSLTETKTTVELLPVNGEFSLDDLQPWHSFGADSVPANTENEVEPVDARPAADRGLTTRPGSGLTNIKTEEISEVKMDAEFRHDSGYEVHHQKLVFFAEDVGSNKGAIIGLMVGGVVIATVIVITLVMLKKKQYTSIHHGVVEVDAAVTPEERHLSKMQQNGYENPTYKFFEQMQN

As for `COc1c(-c2ccc(O)c(O)c2)oc2c(O)c(O)ccc2c1=O`, the inhibition result in data set [1], in data set [2], in data set [4], in [5] and in data set [6] was “Active” throughout. Further, the inhibition result in [3] is “inactive”.

Turning to `O=c1cc(-c2ccc(O)c(O)c2O)oc2ccccc12`, the inhibition entry in data set [1], in data set [7], in data set [4], in [5] and in data set [8] was “Active” in each case. The inhibition result in [9] was “Dose-dependent effect”.

As for `COc1cc(-c2cc(=O)c3c(O)c(OC)c(O)cc3o2)ccc1O` [JACEOSIDINE], the inhibition entry in [10] and in data set [4] was “inactive” throughout. Also, the inhibition result in data set [11] and in data set [8] was “Active” in each case. Moreover, in the data set on PC-12 [12], the Activity result is “Toxic”.

As to `COc1ccc(-c2cc(=O)c3c(OC)c(OC)c(OC)c(OC)c3o2)cc1OC` [NOBILETIN], the inhibition entry in data set [10], in data set [13], in data set [11] and in data set [4] was “inactive” throughout. For the same compound, the Activity result in the data set with PC-12 [12] is given as “Toxic”.

In the case of `O=c1c(O)c(-c2ccc(O)c(O)c2)oc2cc(O)cc(O)c12` [QUERCETIN], the inhibition result in data set [1], in [15], in [4] and in data set [6] was “Active” in each case. The Activity result in the data set with PC-12 [14] is “Non-Toxic”; in the data set on PC-12 [17] it was 25%. Besides, the inhibition entry in data set [16] and in [5] was “inactive” throughout.

Source of the values: ChEMBL document CHEMBL4052649, “Structure-activity relationships for flavone interactions with amyloid β reveal a novel anti-aggregatory and neuroprotective effect of 2',3',4'-trihydroxyflavone (2-D08)” (Bioorg Med Chem, 2017).
